Test results taken from patent US20090069302A1 (SMITHKLINE BEECHAM CORPORATION, priority 2006, published 2009).

How the values were obtained:
GK rats = assay: Effect on glucose, insulin and GLP-1 secretion in GK rats after oral glucose; assay type: in vivo, rat; set-up: Glucose changes / Insulin changes / GLP-1 changes: unit not given here; conditions: for GLP-1 changes: active GLP-1, DPPIV inhibitor pretreated; for GLP-1 changes / Insulin changes / Glucose changes: 5 mg/kg intracolonic at −30 min, glucose 1 g/kg oral at 0 min; for Insulin changes: plasma; for Insulin changes / Glucose changes: DPPIV inhibitor pretreated; for Glucose changes: whole blood
Protocol: Eight week old conscious GK rats (four per group) were pretreated with a DPPIV inhibitor immediately after control blood sampling at −40 min (black arrow), and dosed with vehicle (0.5% HPMC/0.1% Tween80) or 5 mg/kg Example 14 through intracolonic injection at −30 time point (blue arrow). Glucose (1 g/kg) was given orally at 0 min. Blood samples were collected at −40, 0, 5, 15, 30, 60, 90 and 120 minutes after dosing. Whole blood glucose, plasma insulin, and active GLP-1 were measured (ELISA kits, LINCO). […] The results are listed in Tables 3a, 3b, and 3c, and graphically represented in FIGS. 2a, 2b, and 2c, respectively.

AXOR109 = target: T1, AXOR109 (Homo sapiens, UniProt Q8TDU6); assay: Human AXOR109/Melanophore Assay; assay type: cell-based; conditions: melanophore assay; for Emax: 1 h, normalized to alpha-MSH system max; for EC50: AXOR109 transfected melanophores
T1 construct: expressed in transfected cells; host or cells: melanophore cells, transfected by electroporation
T1 sequence (Q8TDU6 1-330): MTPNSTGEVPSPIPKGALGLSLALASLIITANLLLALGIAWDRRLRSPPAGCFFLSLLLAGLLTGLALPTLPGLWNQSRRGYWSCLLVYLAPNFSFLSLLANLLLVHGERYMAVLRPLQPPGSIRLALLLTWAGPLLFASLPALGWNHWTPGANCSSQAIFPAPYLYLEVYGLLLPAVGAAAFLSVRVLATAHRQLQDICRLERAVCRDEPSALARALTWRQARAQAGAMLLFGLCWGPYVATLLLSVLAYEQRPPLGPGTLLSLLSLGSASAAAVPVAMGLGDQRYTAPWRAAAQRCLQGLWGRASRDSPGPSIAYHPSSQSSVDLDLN
Procedure, shortened: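 Readout is melanosome dispersion in melanophores electroporated with human AXOR109, in buffer containing 10 nM melatonin and 1% DMSO. Transmittance was read before and after 1 h compound exposure across 11-point 3-fold dilutions. Response was normalized to 200 nM alpha-MSH as system max, and pEC50 was obtained from a Hill fit.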

COc1ccc(S(=O)(=O)N(C)CCN(C)S(=O)(=O)c2ccc(OC)c(OC)c2)cc1OC [Example 14, N,N′-1,2-ethanediylbis[N-methyl-3,4-bis(methyloxy)benzenesulfonamide]]
active GLP-1 and insulin level compared to controls (GK rats; 5 mg/kg intracolonic, in words): higher level of active GLP-1 and insulin | glucose disposal compared to controls (GK rats; 5 mg/kg intracolonic, in words): improved glucose disposals | GLP-1 changes (GK rats; 0 min): 15.08 | GLP-1 changes (GK rats; 15 min): 23.63 | GLP-1 changes (GK rats; 30 min): 19.58 | GLP-1 changes (GK rats; 60 min): 23.63 | GLP-1 changes (GK rats; 90 min): 23.63 | GLP-1 changes (GK rats; 120 min): 21.15 | GLP-1 changes (GK rats; −40 min (before dosing)): 12.65 | Insulin changes (GK rats; 0 min): 68.06 | Insulin changes (GK rats; 15 min): 366.79 | Insulin changes (GK rats; 30 min): 289.23 | Insulin changes (GK rats; 60 min): 152.33 | Insulin changes (GK rats; 90 min): 146.47 | Insulin changes (GK rats; 120 min): 158.31 | Insulin changes (GK rats; −40 min (before dosing)): 85.82 | Glucose changes (GK rats; 0 min): 74.25 | Glucose changes (GK rats; 15 min): 173.75 | Glucose changes (GK rats; 30 min): 174.75 | Glucose changes (GK rats; 60 min): 122.50 | Glucose changes (GK rats; 90 min): 110.00 | Glucose changes (GK rats; 120 min): 114.50 | Glucose changes (GK rats; −40 min (before dosing)): 106.75 | Emax (AXOR109): 51 to 75% | EC50 (AXOR109): < 126 nM

CCN([C@@H]1CCN(S(=O)(=O)c2ccc(OC)c(OC)c2)C1)S(=O)(=O)c1ccc(OC)c(OC)c1 [Example 60, N-((3R)-1-{[3,4-bis(methyloxy)phenyl]sulfonyl}-3-pyrrolidinyl)-N-ethyl-3,4-bis(methyloxy)benzenesulfonamide]
Emax (AXOR109): 76 to 100% | EC50 (AXOR109): < 126 nM

COc1ccc(S(=O)(=O)N2CCN(S(=O)(=O)c3ccc(C)cc3OC)CC2)cc1OC [Example 3, 1-{[3,4-bis(methyloxy)phenyl]sulfonyl}-4-{[4-methyl-2-(methyloxy)phenyl]sulfonyl}piperazine]
Emax (AXOR109): 51 to 75% | EC50 (AXOR109): 1260 to 10000 nM

COc1ccc(S(=O)(=O)N2CC[C@@H](N(C)S(=O)(=O)c3ccc(OC)c(OC)c3)C2)cc1OC [Example 85]
Emax (AXOR109): 51 to 75% | EC50 (AXOR109): 126 to 1000 nM

COc1ccc(S(=O)(=O)N2C[C@H](C)N(S(=O)(=O)c3ccc4c(c3)OCO4)C[C@@H]2C)cc1OC [Example 70, (2S,5S)-1-(1,3-benzodioxol-5-ylsulfonyl)-4-{[3,4-bis(methyloxy)phenyl]sulfonyl}-2,5-dimethylpiperazine]
Emax (AXOR109): > 100% | EC50 (AXOR109): 126 to 1000 nM

CCCN(C[C@H]1CCCN1S(=O)(=O)c1ccc(OC)c(OC)c1)S(=O)(=O)c1ccc(OC)c(OC)c1 [Example 99, N-[((2R)-1-{[3,4-bis(methyloxy)phenyl]sulfonyl}-2-pyrrolidinyl)methyl]-3,4-bis(methyloxy)-N-propylbenzenesulfonamide]
Emax (AXOR109): 76 to 100% | EC50 (AXOR109): < 126 nM

COc1ccc(S(=O)(=O)N(C)C[C@@H]2CCCN2S(=O)(=O)c2ccc(OC)c(OC)c2)cc1OC [Example 94, N-[((2S)-1-{[3,4-bis(methyloxy)phenyl]sulfonyl}-2-pyrrolidinyl)methyl]-N-methyl-3,4-bis(methyloxy)benzenesulfonamide]
Emax (AXOR109): 76 to 100% | EC50 (AXOR109): 1260 to 10000 nM

COc1ccc(S(=O)(=O)N2C[C@@H](C)N(S(=O)(=O)c3ccc(OC)c(OC)c3)[C@@H](C)C2)cc1 [Example 35, 1-{[3,4-bis(methyloxy)phenyl]sulfonyl}-2,6-cis-dimethyl-4-{[4-(methyloxy)phenyl]sulfonyl}piperazine]
Emax (AXOR109): 51 to 75% | EC50 (AXOR109): 126 to 1000 nM

COc1ccc(S(=O)(=O)N2CCN(S(=O)(=O)c3ccc(OC)c(OC)c3)CC(=O)C2)cc1OC [Example 51, 1,4-bis{[3,4-bis(methyloxy)phenyl]sulfonyl}hexahydro-6H-1,4-diazepin-6-one]
Emax (AXOR109): 76 to 100% | EC50 (AXOR109): 1260 to 10000 nM

CCc1cc(S(=O)(=O)N2CCCN(S(=O)(=O)c3ccc(OC)c(OC)c3)CC2)ccc1OC [Example 41, 1-{[3,4-bis(methyloxy)phenyl]sulfonyl}-4-{[3-ethyl-4-(methyloxy)phenyl]sulfonyl}hexahydro-1H-1,4-diazepine]
Emax (AXOR109): 51 to 75% | EC50 (AXOR109): 126 to 1000 nM

CCN(C1CCCN(S(=O)(=O)c2ccc(OC)c(OC)c2)C1)S(=O)(=O)c1ccc(OC)c(OC)c1 (centres unmarked) [Example 93, N-(1-{[3,4-bis(methyloxy)phenyl]sulfonyl}-3-piperidinyl)-N-ethyl-3,4-bis(methyloxy)benzenesulfonamide]
Emax (AXOR109): 51 to 75% | EC50 (AXOR109): 1260 to 10000 nM

COc1ccc(S(=O)(=O)N2C[C@@H](C)N(S(=O)(=O)c3ccc(OC)c(OC)c3)[C@@H](C)C2)cc1F [Example 32, 1-{[3,4-bis(methyloxy)phenyl]sulfonyl}-4-{[3-fluoro-4-(methyloxy)phenyl]sulfonyl}-2,6-cis-dimethylpiperazine]
Emax (AXOR109): 51 to 75% | EC50 (AXOR109): 126 to 1000 nM

COc1ccc(S(=O)(=O)N2C[C@@H](C)N(S(=O)(=O)c3ccc(OC)c(OC)c3)[C@H](C)C2)cc1OC [Example 17, (2R,6R)-1,4-bis{[3,4-bis(methyloxy)phenyl]sulfonyl}-2,6-dimethylpiperazine]
Emax (AXOR109): 0 to 50% | EC50 (AXOR109): 126 to 1000 nM

COc1ccc(S(=O)(=O)N(CCN(C2CC2)S(=O)(=O)c2ccc(OC)c(OC)c2)C(C)C)cc1OC [Example 89]
Emax (AXOR109): 76 to 100% | EC50 (AXOR109): 126 to 1000 nM

COc1ccc(S(=O)(=O)N2[C@H](C)CN(S(=O)(=O)c3ccc(OC)c(OC)c3)C[C@@H]2C)cc1O [Example 38, 5-[(4-{[3,4-bis(methyloxy)phenyl]sulfonyl}-2,6-cis-dimethyl-1-piperazinyl)sulfonyl]-2-(methyloxy)phenol]
Emax (AXOR109): 51 to 75% | EC50 (AXOR109): 1260 to 10000 nM
